Measured values published in US12377112B2, “Methods of treating neurocognitive disorders, chronic pain and reducing inflammation” (priority 2019, dated 2025).

Tests used:
healthy subjects [1] = assay: Phase 1 study: Five Dimension Altered States of Consciousness questionnaire (5D-ASC); assay type: in vivo, human; conditions: Post-Treatment Day 0; Psilocybin 10 mg
Source text: In some embodiments, the Five Dimension Altered States of Consciousness questionnaire (5D-ASC) is utilized to evaluate the safety and/or efficacy of psilocybin. […] The 5 dimensions include oceanic boundlessness, anxious ego dissolution, visionary restructuralization, auditory alterations and reduction of vigilance.

healthy subjects [2] = assay: Phase 1 study in healthy subjects: adverse events and acute effects; assay type: in vivo, human
Description: A Phase 1 randomized, double-blind, placebo-controlled study to evaluate the effect of psilocybin on cognitive and emotional processing as compared to placebo in healthy volunteers was conducted. The study investigated the short-term (Day 7) and long-term (Day 28) effects of moderate (10 mg) and high doses (25 mg) of psilocybin on key domains of cognition, such as episodic memory, attention, working and spatial memory, social cognition and elements of executive function, including cognitive flexibility.
90 healthy subjects were studied. Approximately 50% of the subjects were psilocybin-naïve. For subjects with prior psilocybin experience, the last exposure was at least 1 year prior to the signing of the Informed Consent Form (ICF). Approximately 50% of the subjects were female. Subjects were stratified by sex and age (18-35 years old; >35 years old).
Each subject was assigned 1 treatment bottle containing 5 capsules packaged in a double-blind fashion, depending on the randomized treatment arm, the bottle contained one of the following: • a. Psilocybin 10 mg: 2×5-mg oral psilocybin capsules plus 3×placebo capsules • b. Psilocybin 25 mg: 5×5-mg oral psilocybin capsules • c. Placebo: 5×placebo capsules
Each 5-mg oral psilocybin capsule comprised 5 mg crystalline psilocybin in the form of Polymorph A, 12.5 mg of SMCC 50, 79.5 mg of SMCC 90, 1 mg sodium starch glycolate, 1 mg colloidal silicon dioxide, and 1 mg sodium stearyl fumarate
Adverse events: Throughout the course of the study, all AEs were monitored and recorded. Each AE was classified according to the following criteria: • i. […] Moderate: The AE produces some impairment of functioning, but is not hazardous to the subject's health. • iii. Severe: The AE produces significant impairment of functioning or incapacitation and is a definite hazard to the subject's health.
Selected Adverse Events of included: • (a) Euphoric mood • (b) Dissociative disorder • (c) Hallucination • (d) Psychotic disorder • (e) Cognitive disorder • (f) Disturbance in attention • (g) Altered mood • (h) Impairment of psychomotor skills • (i) Inappropriate affect • (j) Overdose • (k) Intentional product misuse • (l) Illusion
For example, drug-induced hepatitis that resolved without evidence of hepatic failure would not be considered life threatening even though drug-induced hepatitis can be fatal. • (c) Inpatient hospitalization or prolongation of existing hospitalization. • (d) Persistent or significant disability/incapacity. • (e) Congenital anomaly/birth defect in the offspring of a subject who received psilocybin. • (f) Other: Important medical events that may not result in death, be life-threatening, or require hospitalization, may be considered an SAE when, based upon appropriate medical judgment, they may jeopardize the subject and may require medical or surgical intervention to prevent one of the outcomes listed in this definition. […] Visits:
Visit 3 (V3): Drug Administration (Day 0): The subject was asked to eat a light breakfast at least two hours prior to coming to the clinic for study drug administration. On Day 0 (V3), the subject underwent the SSTS, had vital signs obtained, medications reviewed, AEs recorded and eligibility reviewed prior to being randomized to study drug. The study drug was administered to up to six subjects simultaneously in individual beds separated by a curtain. The subject was invited to put on eyeshades and headphones, lie down and listen to calming music for the rest of the session (six hours). The subject was supported 1:1 with a chaperone and supervised by the study psychiatrist and lead therapist.
The effects of psilocybin usually started about 20 to 30 min after administration, becoming most intense in the first 90 to 120 min and gradually subsiding in about 5 to 6 hours. […]

## CN(C)CCc1c[nH]c2cccc(OP(=O)(O)O)c12 [Psilocybin, psilocybin]
Healthy subjects [1]
  5D-ASC Complex imagery, LS mean: 53.0
Healthy subjects [2]; 10 mg
  Illusion, worst severity Moderate: Events: 16
Healthy subjects [2]; 10 mg and 25 mg, 12-week study
  Serious adverse events or adverse events that led to withdrawal: no serious adverse events
Healthy subjects [2]; Psilocybin 10 mg (N = 30)
  Selected TEAE (any), subjects N (%): 27 (90.0) N (%)
  Selected TEAE: Affect lability, Events: 5
  Selected TEAE: Affect lability, subjects N (%): 5 (16.7) N (%)
  Selected TEAE: Change in sustained attention, Events: 2
  Selected TEAE: Change in sustained attention, subjects N (%): 2 (6.7) N (%)
  Selected TEAE: Depressed mood, Events: 1
  Selected TEAE: Depressed mood, subjects N (%): 1 (3.3) N (%)
  Selected TEAE: Dissociative identity disorder, Events: 2
  Selected TEAE: Dissociative identity disorder, subjects N (%): 1 (3.3) N (%)
  Selected TEAE: Euphoric mood, Events: 7
  Selected TEAE: Euphoric mood, subjects N (%): 7 (23.3) N (%)
  Selected TEAE: Hallucination, Events: 3
  Selected TEAE: Hallucination, auditory, Events: 4
  Selected TEAE: Hallucination, auditory, subjects N (%): 4 (13.3) N (%)
  Selected TEAE: Hallucination, gustatory, Events: 1
  Selected TEAE: Hallucination, gustatory, subjects N (%): 1 (3.3) N (%)
  Selected TEAE: Hallucination, olfactory, Events: 1
  Selected TEAE: Hallucination, olfactory, subjects N (%): 1 (3.3) N (%)
  Selected TEAE: Hallucination, subjects N (%): 3 (10.0) N (%)
  Selected TEAE: Hallucination, tactile, Events: 2
  Selected TEAE: Hallucination, tactile, subjects N (%): 2 (6.7) N (%)
  Selected TEAE: Hallucination, visual, Events: 20
  Selected TEAE: Hallucination, visual, subjects N (%): 18 (60.0) N (%)
  Selected TEAE: Illusion, Events: 25
  Selected TEAE: Illusion, subjects N (%): 19 (63.3) N (%)
  Selected TEAE: Memory impairment, Events: 1
  Selected TEAE: Memory impairment, subjects N (%): 1 (3.3) N (%)
  Selected TEAE: Mood altered, Events: 23
  Selected TEAE: Mood altered, subjects N (%): 13 (43.3) N (%)
  Selected TEAE: Nervous system disorders (SOC), Events: 2
  Selected TEAE: Nervous system disorders (SOC), subjects N (%): 2 (6.7) N (%)
  Selected TEAE: Psychiatric disorders (SOC), Events: 104
  Selected TEAE: Psychiatric disorders (SOC), subjects N (%): 27 (90.0) N (%)
  Selected TEAE: Psychomotor skills impaired, Events: 1
  Selected TEAE: Psychomotor skills impaired, subjects N (%): 1(3.3) N (%)
  Selected TEAE: Somatic hallucination, Events: 8
  Selected TEAE: Somatic hallucination, subjects N (%): 8 (26.7) N (%)
  Selected TEAE: Substance-induced psychotic disorder, Events: 0
  Selected TEAE: Substance-induced psychotic disorder, subjects N (%): 0 N (%)
Healthy subjects [2]; Psilocybin 25 mg (N = 30)
  Selected TEAE (any), subjects N (%): 27 (90.0) N (%)
  Selected TEAE: Affect lability, Events: 3
  Selected TEAE: Affect lability, subjects N (%): 3 (10.0) N (%)
  Selected TEAE: Change in sustained attention, Events: 0
  Selected TEAE: Change in sustained attention, subjects N (%): 0 N (%)
  Selected TEAE: Depressed mood, Events: 2
  Selected TEAE: Depressed mood, subjects N (%): 2 (6.7) N (%)
  Selected TEAE: Dissociative identity disorder, Events: 2
  Selected TEAE: Dissociative identity disorder, subjects N (%): 2 (6.7) N (%)
  Selected TEAE: Euphoric mood, Events: 8
  Selected TEAE: Euphoric mood, subjects N (%): 7 (23.3) N (%)
  Selected TEAE: Hallucination, Events: 2
  Selected TEAE: Hallucination, auditory, Events: 4
  Selected TEAE: Hallucination, auditory, subjects N (%): 4 (13.3) N (%)
  Selected TEAE: Hallucination, gustatory, Events: 0
  Selected TEAE: Hallucination, gustatory, subjects N (%): 0 N (%)
  Selected TEAE: Hallucination, olfactory, Events: 1
  Selected TEAE: Hallucination, olfactory, subjects N (%): 1 (3.3) N (%)
  Selected TEAE: Hallucination, subjects N (%): 2 (6.7) N (%)
  Selected TEAE: Hallucination, tactile, Events: 4
  Selected TEAE: Hallucination, tactile, subjects N (%): 4 (13.3) N (%)
  Selected TEAE: Hallucination, visual, Events: 22
  Selected TEAE: Hallucination, visual, subjects N (%): 21 (70.0) N (%)
  Selected TEAE: Illusion, Events: 26
  Selected TEAE: Illusion, subjects N (%): 18 (60.0) N (%)
  Selected TEAE: Memory impairment, Events: 0
  Selected TEAE: Memory impairment, subjects N (%): 0 N (%)
  Selected TEAE: Mood altered, Events: 25
  Selected TEAE: Mood altered, subjects N (%): 15 (50.0) N (%)
  Selected TEAE: Nervous system disorders (SOC), Events: 0
  Selected TEAE: Nervous system disorders (SOC), subjects N (%): 0 N (%)
  Selected TEAE: Psychiatric disorders (SOC), Events: 106
  Selected TEAE: Psychiatric disorders (SOC), subjects N (%): 27 (90.0) N (%)
  Selected TEAE: Psychomotor skills impaired, Events: 0
  Selected TEAE: Psychomotor skills impaired, subjects N (%): 0 N (%)
  Selected TEAE: Somatic hallucination, Events: 6
  Selected TEAE: Somatic hallucination, subjects N (%): 5 (16.7) N (%)
  Selected TEAE: Substance-induced psychotic disorder, Events: 1
  Selected TEAE: Substance-induced psychotic disorder, subjects N (%): 1 (3.3) N (%)
